Earlier results, collected in patent US5030442A (priority 1989, dated 1991).
“Also recorded” adds a separate entry of the source.

Details: topical form, initial clinical studies

With `Nc1cc(N2CCCCC2)nc(N)[n+]1[O-]` [minoxidil] as the compound, how does the “hair growth response (in words)” value read?
Its value is “reversal of male pattern baldness is most favorable in younger men, and where recent hair loss has occurred; also recorded: new hair growth is observed in a significant percentage of older men and/or where in cases of long-term baldness”.
